The assay deals with protease. Briefly: Storage stability of protease in detergent formulation: residual proteolytic activity by AAPF-pNA assay. The class given is biochemical. The note with it: 1% protease, 1% (w/w) candidate compound in detergent formulation; stored 8 weeks at 30° C.; AAPF-pNA substrate, 25° C., pH 8.6, 410 nm. The protocol:
The storage stability of protease-containing detergents and cleaning agents was tested for use as enzyme stabilizers in the presence of candidate compounds. For this purpose, the candidate compounds were formulated in the presence of up to 1% (w/w) 1,2-propanediol in a detergent or cleaning agent formulation (see Table 2). The protease (1% PUR) was then added to the formulation, and the formulation stored for 8 weeks at 30° C.
In parallel batches, the proteolytic activity of 1% protease was determined in 4% PG (1,2-propanediol), 85% matrix (see Table 1), then, each following incubation with 1% of the candidate compound (specified in w/w; QS 100% with water) determined in half of the batches in the formulation as indicated in Table 1 by the release of the chromophore para-nitroaniline from the succinyl-alanine-alanine-proline-phenylalanine para-nitroanilide substrate (AAPF-pNA; Bachem L-1400). The release of the pNA caused an increase in the absorbance at 410 nm, the progress over time of which is a measure of enzymatic activity. […]
For evaluation, the initial values for the proteolytic activity of the agent in question were compared to the values determined after storage. […] The stabilizing effect of each tested compound is thus measured as a relative percentage increase in the residual protease activity.

Structures are written as SMILES.

`O=C(O)CCCCCNc1nc(NCCCCCC(=O)O)nc(NCCCCCC(=O)O)n1` [2,4,6-Tri-(6-aminocaproic acid)-1,3,5-triazine]: the “Relative residual activity after incubation with KV” value came out at 136%.
